Reference: PMC6372667 (Experimental & Molecular Medicine, 2019)

Assays:
Electric eel AChE = target: T1, Electric eel AChE (Electrophorus electricus, UniProt O42275); experiment: In vitro cholinesterase enzyme assay (Ellman), AChE; format: biochemical
T1 construct: purchased Sigma-Aldrich Co
Excerpt: BACE1 (human recombinant β-secretase) ([…]) and the BACE1 FRET (fluorescence resonance energy transfer) assay kit Red were purchased from ThermoFisher Scientific (P2985; Waltham, MA, USA). […] For the cell culture experiment, Dulbecco’s modified Eagle’s medium (DMEM), Opti-MEM, fetal bovine serum (FBS), and penicillin/streptomycin were obtained from Capricorn Scientific (Ebsdorfergrund, Germany). β-secretase inhibitor III (β-SI) was purchased from Calbiochem (Darmstadt, Germany). The protease inhibitor mixture (a mixture of AEBSF, pepstatin A, E-64, bestain, leupeptin, and aprotinin) was purchased from Sigma-Aldrich (St. Louis, MO, USA). Enzyme-linked immunosorbent assay (ELISA) kits for Aβ40 and Aβ42 were obtained from IBL (Kunma, Japan). All chemicals and solvents used were reagent grade, purchased from commercial sources, and used as received.
The inhibitory activities of pterosin derivatives against cholinesterases were measured using the method developed by Ellman et al.[32]. The reaction mixture contained 140 μL of sodium phosphate buffer (pH 8.0), 20 μL of test sample solution (final concentration of the compound 100 μM), and 20 μL of AChE or BChE solution, mixed and incubated for 15 min at room temperature. […] The reactions were initiated following the addition of 10 μL of DTNB and 10 μL of acetyl thiocholine iodide for the AChE assay or butyryl thiocholine chloride for the BChE assay in 96-well microplates, which were incubated for 15 min.

[1] = pharmacokinetic descriptor of the brain ref 53; cited from earlier work
dementia animal models = settings: 5 mg/kg i.p. ref 53; cited from earlier work
PAMPA-BBB, literature = format: in vitro ADME; settings: from log BB = 0.612 × log Pe + 3.206 (ref 49)
BACE1 = settings: cited from earlier work

T1 sequence (O42275 24-633): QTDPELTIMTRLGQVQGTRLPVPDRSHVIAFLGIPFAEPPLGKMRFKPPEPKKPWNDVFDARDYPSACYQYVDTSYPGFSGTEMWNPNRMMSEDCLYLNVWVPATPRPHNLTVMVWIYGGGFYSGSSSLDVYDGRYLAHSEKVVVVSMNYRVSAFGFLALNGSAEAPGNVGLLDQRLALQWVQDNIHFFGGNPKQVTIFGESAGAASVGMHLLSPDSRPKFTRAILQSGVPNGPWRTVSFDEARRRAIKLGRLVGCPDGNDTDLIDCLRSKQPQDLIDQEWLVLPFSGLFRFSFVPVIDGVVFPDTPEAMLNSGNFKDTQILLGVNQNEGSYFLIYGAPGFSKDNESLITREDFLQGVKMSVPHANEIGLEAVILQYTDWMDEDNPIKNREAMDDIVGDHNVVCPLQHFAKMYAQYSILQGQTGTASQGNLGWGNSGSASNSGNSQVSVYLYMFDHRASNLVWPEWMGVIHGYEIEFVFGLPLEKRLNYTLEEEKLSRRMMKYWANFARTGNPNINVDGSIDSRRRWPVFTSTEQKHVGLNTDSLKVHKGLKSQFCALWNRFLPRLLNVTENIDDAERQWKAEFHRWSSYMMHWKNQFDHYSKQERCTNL

COc1ccc2cc3[n+](cc2c1OC)CCc1cc2c(cc1-3)OCO2 [Berberine, berberine]
IC50 (Electric eel AChE): 390 ± 10 nM | log BB [1]: −0.35 | Cognitive effect (dementia animal models): procognitive and antiamnestic properties | log Pe corresponding to log BB (PAMPA-BBB, literature): −5.8 | BACE1-inhibitory activity (BACE1): lacks
